Patent US20260373248A1, “DEGRADABLE PEPTOIDS” (Medici Therapeutics, Inc., priority 2023, published 2026)
Starred links: 1 amine or outer side, 2 acyl side, 3 side chain; linkers in the order of their positions; H or OH if unused. Non-standard residues stand in square brackets, D forms with d. Residues, ends and D or L forms follow the SMILES beside them. *: point of attachment. N(3-lauroyloxypropyl)Gly = CCCCCCCCCCCC(=O)OCCCNCC(=O)O; N(2-decanoyloxyethyl)Gly = CCCCCCCCCC(=O)OCCNCC(=O)O; Gly(N-(CH2)3O-octanoyl) = CCCCCCCC(=O)OCCCNCC(=O)O; N(3-imidazol-1-ylpropyl)Gly = O=C(O)CNCCCn1ccnc1; Gly(N-3-morpholinopropyl) = O=C(O)CNCCCN1CCOCC1; N(2-ethylhexyl)Gly = CCCCC(CC)CNCC(=O)O; X2 = CCCCCCC(CCCC)CN(CC(=O)[*:2])[*:1]; N(CH(CH2OH)2)Gly = O=C(O)CNC(CO)CO; For = O=C*

What was measured:
[1] = Peptoid quantity remaining in liver by HPLC-TOF mass spectrometry; assay type: in vivo; conditions: liver homogenate
Procedure: Peptoid quantity in liver was determined via high-performance liquid chromatography coupled with time-of-flight mass spectrometer (HPLC-TOF). The entire liver was weighed, and then two sections were isolated using a provided biopsy punch for liver homogenization. Liver homogenate sample was prepared by resuspending 20 mg liver tissue in 400 μL extraction solvent (IPA/MeOH=8/2) containing an internal standard (400 pg/μL) followed by bead homogenization (45 sec per cycle for 3-4 cycles). Homogenized samples were centrifuged at 12,000 rpm for 8 min at 6 °C. The resulting supernatant was collected and stored at −20 °C for further LC analysis. 5 μL of the resulting supernatant sample from solid or liquid tissue was injected into a BEH C8 column on an Agilent 1290 Infinity II liquid chromatograph coupled with an Agilent 6230 LC-TOF system. Concentrations of peptoids were determined by a linear calibration curve (linear range:0.2-50 μg/g for solid tissue). Standard calibration curve solutions were prepared by spiking untreated liver followed by homogenization and centrifugation.

firefly luciferase = assay: In vivo firefly luciferase expression after intravenous injection of fLuc mRNA delivery vehicles (IVIS imaging); design: species or system female Balb/c mice; conditions: for Total Flux (luciferase expression): fLuc mRNA, intravenous, Balb/c mice; for Total Flux: mice, 2.5 ug fLuc mRNA intravenously, 6 hours post-injection
Summary of the method: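 Female Balb/c mice (6-8 weeks) given 2.5 ug fLuc mRNA in Nutshells IV. At 6 hours, IP D-luciferin (30 mg/mL, 10 μL/g) under isoflurane; IVIS imaging 10 minutes later, then harvested organs imaged ex vivo. Read-out: total photon flux in regions of interest.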

mRNA = mRNA encapsulation (modified Quant-iT RiboGreen assay); assay type: physicochemical; conditions: for mean percent encapsulation of RNA: RiboGreen, without vs with Triton X-100; for % Encapsulation: mRNA
Summary of the method: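 Peptoid nanoparticles were incubated with Triton X-100 for 10 min to release entrapped mRNA, then mixed with RiboGreen reagent and read by fluorescence (ex 485 nm/em 530 nm). Percent encapsulation was derived from the ratio of fluorescence without versus with Triton X-100.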

hEPO = assay: Quantification of hEPO in serum after IV injection of mRNA (Human EPO ELISA); assay type: in vivo; conditions: Balb/c mice, 2.5 μg mRNA IV, serum after 6 hours
Summary of the method: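 Balb/c mice received 2.5 μg mRNA encoding human EPO by IV injection; serum was collected after 6 hours. hEPO was measured by sandwich ELISA (biotin-conjugate, streptavidin-HRP, TMB, A450) against kit standards (mIU/mL) and an external standard (ng/mL), with values interpolated and corrected for dilution.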

[2] = Delivery vehicle size and polydispersity by dynamic light scattering; assay type: physicochemical
Summary of the method: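 LNPs made by microfluidic mixing of ethanolic peptoid/DSPC/cholesterol/DMG-PEG2000 (20:1.79:7.16:1.84 by weight) with mRNA in 10 mM citrate pH 5.0 at 1:3 by volume, then dialyzed overnight at 4 °C against tris-sucrose pH 7.4. Size and PDI read by dynamic light scattering in PBS.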

luciferase = assay: Luciferase expression after local (intramuscular or subcutaneous) administration of mRNA; assay type: in vivo; conditions: mRNA 0.01 mpk, 6 hours; for IM Flux: intramuscular; for SC Flux: subcutaneous
Summary of the method: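 Female Balb/c mice (6-8 weeks) received fLuc mRNA in aminolipidated peptoid Nutshells at 0.01 mpk subcutaneously or intramuscularly, or 0.1 mpk intratumorally. At 6 hours, anesthetized mice were given D-luciferin IP and imaged 10 minutes later; harvested organs were also imaged and total photon flux quantified in regions of interest.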

[3] = DLS in PBS, peptoid:DSPC:Cholesterol:DMG-PEG2000 weight ratio 20:1.79:7.16:1.84, mRNA

| Compound | % of injected dose remaining in liver [1] [%] | Total Flux (firefly luciferase) [p/s] | mean percent encapsulation of RNA (mRNA) [%] | hEPO (hEPO) [ng/mL] | PDI [2, 3] | Particle Size [2, 3] [nm] | IM Flux (luciferase) [p/s] | SC Flux (luciferase) [p/s] | further results |
| --- | --- | --- | --- | --- | --- | --- | --- | --- | --- |
| CCCCCCCCCC(=O)OCCN(CC(=O)N(CCOC(=O)CCCCCCCCC)CC(=O)N(CC(=O)N(CCOC(=O)CCCCCCCCC)CC(=O)N(CCOC(=O)CCCCCCCCC)CC(=O)N(CC(N)=O)CC(CC)CCCC)CC(CC)CCCC)C(=O)CN(C=O)CCCN1CCOCC1 (centres unmarked) [Compound 76] (For-[Gly(N-3-morpholinopropyl)][N(2-decanoyloxyethyl)Gly][N(2-decanoyloxyethyl)Gly][N(2-ethylhexyl)Gly][N(2-decanoyloxyethyl)Gly][N(2-decanoyloxyethyl)Gly][N(2-ethylhexyl)Gly]-NH2) | 7.34 | 5.54E+09 | 56.4 | 2140 | 0.095 | 75.4 | 1.70E+08 | 8.95E+07 | Total Flux (luciferase expression) (firefly luciferase; formulation recipe D22): 5.54E+09 p/s; Total Flux (luciferase expression) (firefly luciferase; formulation recipe R1): 5.94E+08 p/s; Total Flux (luciferase expression) (firefly luciferase; formulation recipe R5): 1.00E+09 p/s; Total Flux (luciferase expression) (firefly luciferase; formulation recipe R6): 2.28E+09 p/s; Total Flux (luciferase expression) (firefly luciferase; formulation recipe R7): 4.00E+09 p/s; % Encapsulation (mRNA; formulation recipe D22): 56.4%; % Encapsulation (mRNA; formulation recipe R1): 82.7%; % Encapsulation (mRNA; formulation recipe R5): 88.1%; % Encapsulation (mRNA; formulation recipe R6): 87.6%; % Encapsulation (mRNA; formulation recipe R7): 79.9%; Particle Size ([2]; formulation recipe D22): 75.4 nm; Particle Size ([2]; formulation recipe R1): 66.0 nm; Particle Size ([2]; formulation recipe R5): 67.2 nm; Particle Size ([2]; formulation recipe R6): 74.4 nm; Particle Size ([2]; formulation recipe R7): 75.3 nm |
| CCCCCCCCCC(=O)OCCN(CC(N)=O)C(=O)CN(CC(CC)CCCC)C(=O)CN(CCOC(=O)CCCCCCCCC)C(=O)CN(CCOC(=O)CCCCCCCCC)C(=O)CN(CC(CC)CCCC)C(=O)CN(CCOC(=O)CCCCCCCCC)C(=O)CNC(CO)CO (centres unmarked) [Compound 56] (H-[N(CH(CH2OH)2)Gly][N(2-decanoyloxyethyl)Gly][N(2-ethylhexyl)Gly][N(2-decanoyloxyethyl)Gly][N(2-decanoyloxyethyl)Gly][N(2-ethylhexyl)Gly][N(2-decanoyloxyethyl)Gly]-NH2) | 24.83 | 2.42E+09 | 23.8 | 551 | 0.234 | 102.4 | 5.78E+07 | 8.24E+07 | Total Flux (luciferase expression) (firefly luciferase; formulation recipe O3): 5.66E+08 p/s; Total Flux (luciferase expression) (firefly luciferase; formulation recipe O5): 6.97E+08 p/s; % Encapsulation (mRNA; formulation recipe O3): 86.9%; % Encapsulation (mRNA; formulation recipe O5): 89.6%; Particle Size ([2]; formulation recipe O3): 57.9 nm; Particle Size ([2]; formulation recipe O5): 62.4 nm |
| CCCCCCCC(=O)OCCCN(CC(=O)N(CC(=O)N(CC(=O)N(CCCOC(=O)CCCCCCC)CC(=O)N(CC(N)=O)CC(CC)CCCC)CC(CC)CCCC)CC(CC)CCCC)C(=O)CN(CC(CC)CCCC)C(=O)CNC(CO)CO (centres unmarked) [Compound 4] (H-[N(CH(CH2OH)2)Gly][N(2-ethylhexyl)Gly][Gly(N-(CH2)3O-octanoyl)][N(2-ethylhexyl)Gly][N(2-ethylhexyl)Gly][Gly(N-(CH2)3O-octanoyl)][N(2-ethylhexyl)Gly]-NH2) | 5.98 | 4.33E+09 | 94.6 | 291 | 0.113 | 74.4 | 5.26E+08 | 5.11E+08 | – |
| CCCCCCCC(=O)OCCCN(CC(=O)N(CC(=O)N(CC(=O)N(CCCOC(=O)CCCCCCC)CC(=O)N(CC(N)=O)CC(CCCC)CCCCCC)CC(CC)CCCC)CC(CCCC)CCCCCC)C(=O)CN(CC(CC)CCCC)C(=O)CNC(CO)CO (centres unmarked) [Compound 104] (H-[N(CH(CH2OH)2)Gly][N(2-ethylhexyl)Gly][Gly(N-(CH2)3O-octanoyl)][X2][N(2-ethylhexyl)Gly][Gly(N-(CH2)3O-octanoyl)][X2]-NH2) | 7.45 | 4.50E+09 | 93.6 | 693 | 0.092 | 78.8 | 1.34E+08 | 1.93E+08 | – |
| CCCCCCCCCCCC(=O)OCCCN(CC(=O)N(CC(=O)N(CC(=O)N(CCCn1ccnc1)CC(=O)N(CC(=O)N(CC(=O)N(CCCOC(=O)CCCCCCCCCCC)CC(=O)N(CC(N)=O)CC(CC)CCCC)Cc1ccco1)CC(CC)CCCC)CC(CC)CCCC)Cc1ccco1)C(=O)CN(C=O)CC(CC)CCCC (centres unmarked) [Compound 100] | 19.76 | 2.32E+08 | 68.4 | 59.4 | 0.103 | 109.3 | 4.86E+07 | 6.16E+07 | – |
| CCCCCCCCCCCC(=O)OCCCN(CC(=O)N(CC(=O)N(CCCn1ccnc1)CC(=O)N(CC(=O)N(CCCOC(=O)CCCCCCCCCCC)CC(=O)N(CC(N)=O)CC(CC)CCCC)CC(CC)CCCC)CC(CC)CCCC)C(=O)CN(C=O)CC(CC)CCCC (centres unmarked) [Compound 82] (For-[N(2-ethylhexyl)Gly][N(3-lauroyloxypropyl)Gly][N(2-ethylhexyl)Gly][N(3-imidazol-1-ylpropyl)Gly][N(2-ethylhexyl)Gly][N(3-lauroyloxypropyl)Gly][N(2-ethylhexyl)Gly]-NH2) | 15.77 | 2.62E+09 | 70.7 | 600 | 0.163 | 81.5 | 1.24E+08 | 1.41E+08 | Total Flux (luciferase expression) (firefly luciferase; formulation recipe D22): 2.62E+09 p/s; Total Flux (luciferase expression) (firefly luciferase; formulation recipe F2): 4.10E+08 p/s; Total Flux (luciferase expression) (firefly luciferase; formulation recipe X29): 2.83E+09 p/s; Total Flux (luciferase expression) (firefly luciferase; formulation recipe X145): 5.70E+09 p/s; % Encapsulation (mRNA; formulation recipe D22): 70.7%; % Encapsulation (mRNA; formulation recipe F2): 75.3%; % Encapsulation (mRNA; formulation recipe X29): 62.0%; % Encapsulation (mRNA; formulation recipe X145): 70.9%; Particle Size ([2]; formulation recipe D22): 81.5 nm; Particle Size ([2]; formulation recipe F2): 65.9 nm; Particle Size ([2]; formulation recipe X29): 72.1 nm; Particle Size ([2]; formulation recipe X145): 80.7 nm |
| CCCCCCCCCC(=O)OCCN(CC(=O)N(CCOC(=O)CCCCCCCCC)CC(=O)N(CC(=O)N(CCOC(=O)CCCCCCCCC)CC(=O)N(CCOC(=O)CCCCCCCCC)CC(=O)N(CC(N)=O)CC(CC)CCCC)CC(CC)CCCC)C(=O)CNC(CO)CO (centres unmarked) [Compound 16] (H-[N(CH(CH2OH)2)Gly][N(2-decanoyloxyethyl)Gly][N(2-decanoyloxyethyl)Gly][N(2-ethylhexyl)Gly][N(2-decanoyloxyethyl)Gly][N(2-decanoyloxyethyl)Gly][N(2-ethylhexyl)Gly]-NH2) | 6.65 | 9.70E+09 | 55.7 | 422 | 0.135 | 90.0 | 3.09E+08 | 5.62E+08 | Total Flux (luciferase expression) (firefly luciferase; formulation recipe F2): 2.35E+09 p/s; Total Flux (luciferase expression) (firefly luciferase; formulation recipe R1): 5.73E+08 p/s; Total Flux (luciferase expression) (firefly luciferase; formulation recipe R5): 6.72E+08 p/s; Total Flux (luciferase expression) (firefly luciferase; formulation recipe R7): 1.81E+09 p/s; Total Flux (luciferase expression) (firefly luciferase; formulation recipe R9): 1.14E+09 p/s; % Encapsulation (mRNA; formulation recipe F2): 90.8%; % Encapsulation (mRNA; formulation recipe R1): 89.4%; % Encapsulation (mRNA; formulation recipe R5): 92.2%; % Encapsulation (mRNA; formulation recipe R7): 87.8%; % Encapsulation (mRNA; formulation recipe R9): 93.3%; Particle Size ([2]; formulation recipe F2): 71.0 nm; Particle Size ([2]; formulation recipe R1): 59.8 nm; Particle Size ([2]; formulation recipe R5): 57.2 nm; Particle Size ([2]; formulation recipe R7): 69.1 nm; Particle Size ([2]; formulation recipe R9): 59.0 nm |
